{
  "source": "patent US20230026789A1",
  "about": "“METHODS, SYSTEMS, AND TOOLS FOR LONGEVITY-RELATED APPLICATIONS” (SPRING DISCOVERY, INC., priority 2020, published 2023)",
  "key": {"[1]": {"test_system": "T cells in rVSV-ΔG-mCherry-infected PBMCs", "assay": "On-age and off-age scores from T-cell image embeddings", "format": "cell-based, human", "conditions": "T cells from older donors vs untreated controls"}, "[2]": {"test_system": "T cells in rVSV-ΔG-mCherry-infected PBMCs", "format": "cell-based, human"}, "[3]": {"test_system": "rVSV-ΔG-mCherry-infected PBMCs"}, "[4]": {"test_system": "rVSV-infected PBMCs from older donors", "format": "cell-based, human"}, "[5]": {"test_system": "T cells in rVSV-ΔG-mCherry-infected PBMCs", "format": "cell-based, human", "remark": "listed apart in the source"}, "[6]": {"test_system": "rVSV-ΔG-mCherry-infected PBMCs from older donors", "format": "cell-based, human"}, "late stage COVID-19": {"test_system": "late stage COVID-19", "conditions": "cited from earlier work"}},
  "note": "Where a name gives a salt, the structure may show the parent alone.",
  "data": [
    {"molecule": "CC(C)[C@]12O[C@H]1[C@@H]1O[C@@]13[C@@]1(C)CCC4=C(COC4=O)[C@@H]1C[C@@H]1O[C@@]13C2=O", "note": "[Triptonide]", "values": [
      {"measurement": "off-age effects (change orthogonal to age distances)", "setting": "[1]", "result": "significant"},
      {"measurement": "on-age score (distance from young controls)", "setting": "[1]", "result": "significantly shifted"},
      {"measurement": "T-cell age score / aging model readout vs old untreated controls", "setting": "[2]", "result": "from an older phenotype to a younger phenotype"},
      {"measurement": "less T cells relative to vehicle-only controls", "setting": "[3]", "result": 19, "unit": "%"},
      {"measurement": "more dead and infected monocytes relative to vehicle-only controls", "setting": "[3]", "result": 21, "unit": "%"},
      {"measurement": "percentage of T cells", "setting": "[3]", "result": "decrease"},
      {"measurement": "percentage of dead cells and infected monocytes", "setting": "[3]", "result": "significant increase"},
      {"measurement": "outcome of screen ranked by immune aging score and COVID-19 cytokine score", "setting": "[4]", "result": "identified as a therapy with potential for rejuvenating the aging immune system"},
      {"measurement": "percentage of reticular T-cell mitochondria", "setting": "[5]", "result": "dose-dependent decrease"},
      {"measurement": "IL-1β level vs old untreated control PBMCs", "setting": "[6]", "result": "significant differences at one or more doses"},
      {"measurement": "MCP1 level vs old untreated control PBMCs", "setting": "[6]", "result": "significant, dose-dependent reduction"},
      {"measurement": "TNFα level vs old untreated control PBMCs", "setting": "[6]", "result": "significant differences at one or more doses"}
    ]},
    {"molecule": "Tocilizumab: IL-6 targeting therapy tested in late stage COVID-19", "values": [
      {"measurement": "patients who lowered their oxygen intake", "setting": "late stage COVID-19; 15 of 20 late stage COVID-19 patients", "result": 75.0, "unit": "%"},
      {"measurement": "patients with lung lesion opacity absorbed on CT scans", "setting": "late stage COVID-19; 19 patients", "result": 90.5, "unit": "%"},
      {"measurement": "fever after treatment", "setting": "late stage COVID-19; within a few days after treatment", "result": "returned to normal"}
    ]},
    {"molecule": "COC(=O)/C=C/C(=O)OC", "note": "[dimethyl fumarate, reference compound]", "values": [
      {"measurement": "on-age score (distance from young controls)", "setting": "[1]", "result": "did not improve"}
    ]}
  ]
}
